In ChEMBL document CHEMBL4706737, “PROTAC-Mediated Degradation of Bruton's Tyrosine Kinase as a Therapeutic Strategy for Cancer” (ACS Med Chem Lett, 2021):

What follows are molecules tested against Protein cereblon/Tyrosine-protein kinase BTK (Homo sapiens, UniProt Q06187+Q96SW2) (assay: Protac activity at E3 ubiquitin ligase/BTK in human Ramos cells assessed as induction of BTK degradation measured after 16 hrs by ELISA).
Format: cell-based

Protein cereblon/Tyrosine-protein kinase BTK, sequence (Q06187 whole entry): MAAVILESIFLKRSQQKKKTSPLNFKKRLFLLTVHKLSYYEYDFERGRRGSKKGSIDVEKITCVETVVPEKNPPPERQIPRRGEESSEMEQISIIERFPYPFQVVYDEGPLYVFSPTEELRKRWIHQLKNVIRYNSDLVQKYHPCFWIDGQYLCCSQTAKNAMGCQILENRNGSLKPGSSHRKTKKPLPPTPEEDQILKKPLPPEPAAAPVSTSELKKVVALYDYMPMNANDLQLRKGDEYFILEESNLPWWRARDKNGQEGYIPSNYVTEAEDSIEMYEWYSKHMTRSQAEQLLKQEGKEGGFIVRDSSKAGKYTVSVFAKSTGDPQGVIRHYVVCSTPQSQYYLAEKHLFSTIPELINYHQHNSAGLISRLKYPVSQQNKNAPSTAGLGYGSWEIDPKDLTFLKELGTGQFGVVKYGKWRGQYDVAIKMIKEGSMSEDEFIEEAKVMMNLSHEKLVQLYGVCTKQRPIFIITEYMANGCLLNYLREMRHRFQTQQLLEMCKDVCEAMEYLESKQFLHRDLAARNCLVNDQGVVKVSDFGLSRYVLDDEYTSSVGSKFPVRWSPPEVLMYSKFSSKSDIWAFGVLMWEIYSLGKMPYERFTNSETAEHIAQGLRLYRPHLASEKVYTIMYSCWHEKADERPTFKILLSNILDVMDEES
Protein cereblon/Tyrosine-protein kinase BTK, sequence (Q96SW2 whole entry): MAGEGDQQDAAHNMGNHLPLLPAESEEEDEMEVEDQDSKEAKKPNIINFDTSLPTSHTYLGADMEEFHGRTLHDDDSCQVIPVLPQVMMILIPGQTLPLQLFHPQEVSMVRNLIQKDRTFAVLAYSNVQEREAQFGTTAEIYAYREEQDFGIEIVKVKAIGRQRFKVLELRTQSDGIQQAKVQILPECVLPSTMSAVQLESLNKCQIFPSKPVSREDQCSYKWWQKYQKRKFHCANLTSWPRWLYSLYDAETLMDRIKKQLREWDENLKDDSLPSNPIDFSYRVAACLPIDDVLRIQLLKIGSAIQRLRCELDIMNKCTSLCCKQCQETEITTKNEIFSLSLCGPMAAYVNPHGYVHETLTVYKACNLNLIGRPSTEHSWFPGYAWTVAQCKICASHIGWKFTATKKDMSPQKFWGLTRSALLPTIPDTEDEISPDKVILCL

Row | SMILES | DC50 [nM]
1 | NC(=O)c1c(-c2ccc(Oc3ccccc3)cc2)nn2c1NCC[C@H]2C1CCN(C(=O)CCN2CCN(C(=O)CNc3ccc4c(c3)C(=O)N(C3CCC(=O)NC3=O)C4=O)CC2)CC1 (some centres not stated) | 2.9
2 | NC(=O)c1c(-c2ccc(Oc3ccccc3)cc2)nn2c1NCC[C@H]2C1CCN(C(=O)c2cn(CCOCCOCCOCCOCCNc3cccc4c3C(=O)N(C3CCC(=O)NC3=O)C4=O)nn2)CC1 (some centres not stated) | 68
3 | NC(=O)c1c(-c2ccc(Oc3ccccc3)cc2)nn2c1NCC[C@H]2C1CCN(C(=O)c2cn(CCOCCOCCOCCOCCOCCNc3ccc4c(c3)C(=O)N(C3CCC(=O)NC3=O)C4=O)nn2)CC1 (some centres not stated) | 78
4 | NC(=O)c1c(-c2ccc(Oc3ccccc3)cc2)nn2c1NCC[C@H]2C1CCN(C(=O)CCC2CCC(N3CCN(c4ccc5c(c4)C(=O)N(C4CCC(=O)NC4=O)C5=O)CC3)CC2)CC1 (some centres not stated) | 17
5 | NC(=O)c1c(-c2ccc(Oc3ccccc3)cc2)nn2c1NCC[C@H]2C1CCN(C(=O)c2cn(CCOCCOCCOCCOCCOCCOCCNc3cccc4c3C(=O)N(C3CCC(=O)NC3=O)C4=O)nn2)CC1 (some centres not stated) | 107
6 | NC(=O)c1c(-c2ccc(Oc3ccccc3)cc2)nn2c1NCC[C@H]2C1CCN(C(=O)c2cn(CCOCCOCCOCCOCCOCCNc3cccc4c3C(=O)N(C3CCC(=O)NC3=O)C4=O)nn2)CC1 (some centres not stated) | 78
7 | CN(CCC(=O)N1CCC([C@@H]2CCNc3c(C(N)=O)c(-c4ccc(Oc5ccccc5)cc4)nn32)CC1)CC1CCN(c2ccc3c(c2)C(=O)N(C2CCC(=O)NC2=O)C3=O)CC1 (some centres not stated) | 35
8 | CN(CC1CCN(C(=O)c2ccc(N3CCC(=O)NC3=O)cc2)CC1)C1CC(C(=O)N2CCC([C@@H]3CCNc4c(C(N)=O)c(-c5ccc(Oc6ccccc6)cc5)nn43)CC2)C1 (some centres not stated) | 7.2
9 | NC(=O)c1c(-c2ccc(Oc3ccccc3)cc2)nn2c1NCC[C@H]2C1CCN(C(=O)CCc2ccc(N3CCN(c4ccc5c(c4)C(=O)N(C4CCC(=O)NC4=O)C5=O)CC3)cc2)CC1 (some centres not stated) | 74
10 | NC(=O)c1c(-c2ccc(Oc3ccccc3)cc2)nn2c1NCC[C@H]2C1CCN(C(=O)c2cn(CCOCCOCC(=O)Nc3ccc4c(c3)C(=O)N(C3CCC(=O)NC3=O)C4=O)nn2)CC1 (some centres not stated) | 34
11 | NC(=O)c1c(-c2ccc(Oc3ccccc3)cc2)nn2c1NCC[C@H]2C1CCN(C(=O)CCCc2ccc(NC(=O)CNc3ccc4c(c3)C(=O)N(C3CCC(=O)NC3=O)C4=O)cc2)CC1 (some centres not stated) | 28
12 | NC(=O)c1c(-c2ccc(Oc3ccccc3)cc2)nn2c1NCC[C@H]2C1CCN(C(=O)CCCN2CCN(C(=O)CNc3ccc4c(c3)C(=O)N(C3CCC(=O)NC3=O)C4=O)CC2)CC1 (some centres not stated) | 35
